Like-named read-outs stand apart in the source and are kept apart here.
Columns and labels:
[1] = plasma free fraction; cited from earlier work
[2] = test system: isolated mouse liver mitochondria; settings: In vitro Assay; ref Porceddu 2012; cited from earlier work
[3] = test system: hLiMTs; assay: Combined HCI (HCS) and cellular ATP 3D assay in hLiMTs; settings: for DILI prediction hLiMTs (HCS-MEC): Microtissue model structural based (HCI), combined HCS and ATP, MEC < 25 × Cmax.tot cut-off; for hLiMTs <25x Avg Cmax ATP / hLiMTs <100x Avg Cmaxu ATP: ATP endpoint; for hLiMTs <25x Avg Cmax ATP / hLiMTs <25x Avg Cmax HCS / hLiMTs <25x Avg Cmax All: cut-off <25x Avg Cmax; for hLiMTs <100x Avg Cmaxu ATP / hLiMTs <100x Avg Cmaxu HCS / hLiMTs <100x Avg Cmaxu All: cut-off <100x Avg Cmaxu; for hLiMTs <25x Avg Cmax HCS / hLiMTs <100x Avg Cmaxu HCS: HCS endpoints; for hLiMTs <25x Avg Cmax All: all endpoints (ATP and HCS); for hLiMTs Cmax max All / hLiMTs Cmax min All / hLiMTs <10 uM All / hLiMTs <100x Avg Cmaxu All: all endpoints; for hLiMTs Cmax max All: Cmax max used; for hLiMTs Cmax min All: Cmax min used; for hLiMTs <10 uM All: cut-off <10 uM
[4] = test system: human hepatocytes; settings: cited from earlier work
[5] = test system: HepaRG spheroids; assay: Combined HCI (HCS) and cellular ATP 3D assay in HepaRG spheroids; settings: for HepaRG <25x Avg Cmax ATP / HepaRG <100x Avg Cmaxu ATP: ATP endpoint; for HepaRG <25x Avg Cmax ATP / HepaRG <25x Avg Cmax HCS / HepaRG <25x Avg Cmax All: cut-off <25x Avg Cmax; for HepaRG <100x Avg Cmaxu ATP / HepaRG <100x Avg Cmaxu HCS / HepaRG <100x Avg Cmaxu All: cut-off <100x Avg Cmaxu; for HepaRG <25x Avg Cmax HCS / HepaRG <100x Avg Cmaxu HCS: HCS endpoints; for HepaRG <25x Avg Cmax All: all endpoints (ATP and HCS); for HepaRG Cmax max All / HepaRG Cmax min All / HepaRG <10 uM All / HepaRG <100x Avg Cmaxu All: all endpoints; for HepaRG Cmax max All: Cmax max used; for HepaRG Cmax min All: Cmax min used; for HepaRG <10 uM All: cut-off <10 uM; for AC50 / minimal effective concentration: Homo sapiens; for HepaRG <25x Avg Cmax ATP / HepaRG <100x Avg Cmaxu ATP / HepaRG <25x Avg Cmax HCS / HepaRG <100x Avg Cmaxu HCS / HepaRG <25x Avg Cmax All / HepaRG Cmax max All / HepaRG Cmax min All / HepaRG <10 uM All / HepaRG <100x Avg Cmaxu All / AC50 / minimal effective concentration: HepaRG; for DILI prediction HepaRG spheroids (HCS-MEC): Microtissue model structural based (HCI), combined HCS and ATP, MEC < 25 × Cmax.tot cut-off
[6] = Plasma free fraction (fu) and unbound Cmax (Cmax,u); format: in vitro ADME, human; settings: unbound plasma Cmax
Description: The prediction of DILI severity was evaluated further using the 3D combined HCI assays using plasma-free fraction. The majority of fu values were obtained from literature, when unavailable in-house prediction was utilised. Unbound plasma Cmax concentrations (Cmax,u) were derived by multiplying total plasma Cmax with the corresponding free fraction (fu) for each compound.

[7] = read-out: Human plasma Cmax; total plasma Cmax.tot, median of 9 literature references; cited from earlier work
[8] = test system: hLiMTs; settings: cited from earlier work
[9] = in vivo; cited from earlier work
[10] = test system: PHH; settings: cited from earlier work
[11] = test system: THLE or HepG2 cells, isolated mitochondria, BSEP; settings: cited from earlier work
[12] = in vivo; cited from earlier work; remark: listed apart in the source
[13] = In vitro Assay, ref Proctor 2017

Row | SMILES | fu [1] | DILI prediction hLiMTs (HCS-MEC) [3] | hLiMTs <25x Avg Cmax ATP [3] | hLiMTs <100x Avg Cmaxu ATP [3] | hLiMTs <25x Avg Cmax HCS [3] | hLiMTs <100x Avg Cmaxu HCS [3] | hLiMTs <25x Avg Cmax All [3] | hLiMTs Cmax max All [3] | hLiMTs Cmax min All [3] | hLiMTs <10 uM All [3] | hLiMTs <100x Avg Cmaxu All [3] | HepaRG <25x Avg Cmax ATP [5] | HepaRG <100x Avg Cmaxu ATP [5] | HepaRG <25x Avg Cmax HCS [5] | HepaRG <100x Avg Cmaxu HCS [5] | HepaRG <25x Avg Cmax All [5] | HepaRG Cmax max All [5] | HepaRG Cmax min All [5] | HepaRG <10 uM All [5] | HepaRG <100x Avg Cmaxu All [5] | also measured
1 | CC[C@H]1OC(=O)[C@H](C)[C@@H](O[C@H]2C[C@@](C)(OC)[C@@H](O)[C@H](C)O2)[C@H](C)[C@@H](O[C@@H]2O[C@H](C)C[C@H](N(C)C)[C@H]2O)[C@](C)(O)C[C@@H](C)C(=O)[C@H](C)[C@@H](O)[C@]1(C)O [erythromycin] | 0.100 | -VE | -ve | -ve | -ve | -ve | -ve | -ve | -ve | -ve | -ve | +ve | -ve | +ve | +ve (<100x Avg Cmaxu) | +ve | +ve | +ve | -ve | +ve (<100x Avg Cmaxu) | in vitro data EC2<=1x Cmax [2]: +VE; Structural based (HCI) ([4]; In vitro Assay, ref Xu 2008): -VE; DILI in vitro assay prediction, Xu (2008) ([4]; Structural based (HCI), human hepatocytes, ref Xu et al. 2008): -VE; AC50 ([5]; read-out: ATP endpoint AC50): 214 µM; minimal effective concentration ([5]; read-out: ATP endpoint MEC): 128 µM; AC50 ([5]; read-out: HCS endpoint AC50): 294 µM; minimal effective concentration ([5]; read-out: HCS endpoint MEC): 38.1 µM; DILI prediction HepaRG spheroids (HCS-MEC) [5]: +VE (MEC < 25 × Cmax.tot cut-off); Human plasma Cmax,u [6]: 620 nM; Cmax [7]: 6200 nM
2 | Nc1cc(N2CCCCC2)nc(N)[n+]1[O-] [minoxidil] | 0.990 | -VE | -ve | -ve | -ve | +ve (<100x Avg Cmaxu) | -ve | -ve | -ve | -ve | +ve (<100x Avg Cmaxu) | -ve | -ve | -ve | -ve | -ve | -ve | -ve | -ve | -ve | hLiMTs ATP <100uM [8, 13]: -VE; hLiMTs/100uM, Proctor (2017) ([8]; hLiMTs, ATP, IC50 threshold 100 µM, ref Proctor et al. 2017): -VE; DILI +VE (5-8), DILI -VE (-4) [9]: -VE; DILI severity category (Chen 2016) [9]: No; DILI severity category (Chen et al. [2016]) [9]: No; minimal effective concentration ([3]; Homo sapiens, read-out: HCS endpoint MEC): 111 µM; DILI prediction HepaRG spheroids (HCS-MEC) [5]: -VE; PHH/100uM, Proctor (2017) ([10]; 2D PHH, ATP, IC50 threshold 100 µM, ref Proctor et al. 2017): -VE; PHH ATP <100uM [10, 13]: -VE; Human plasma Cmax,u [6]: 1183 nM; Cmax [7]: 1200 nM; Partition Hybrid HRM Score ≥8, Aleo (2019) [11]: -VE; Rule of Two hybrid HRM Score ≥8, Aleo (2019) [11]: -VE; Assigned DILI category [12]: 1; In vivo DILI [12]: -VE
